Experimental findings from BindingDB's records for doi:10.1021/acs.jmedchem.8b00864 (2018) are described below.

A value given as a limit tells only on which side of the number the result lay.

Chain of 2-acylglycerol O-acyltransferase 2 (MOGAT2, Homo sapiens) (Q3SYC2 whole entry, looked up): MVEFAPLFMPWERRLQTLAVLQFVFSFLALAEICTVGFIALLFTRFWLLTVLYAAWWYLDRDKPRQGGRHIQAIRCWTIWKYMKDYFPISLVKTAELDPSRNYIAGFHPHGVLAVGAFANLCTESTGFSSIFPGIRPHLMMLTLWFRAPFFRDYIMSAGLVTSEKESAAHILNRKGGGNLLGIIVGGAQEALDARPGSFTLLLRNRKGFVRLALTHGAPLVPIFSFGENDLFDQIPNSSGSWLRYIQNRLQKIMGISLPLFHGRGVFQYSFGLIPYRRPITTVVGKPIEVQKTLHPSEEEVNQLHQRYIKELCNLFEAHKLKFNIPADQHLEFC

The first assay has as its target 2-acylglycerol O-acyltransferase 2 (MOGAT2, Homo sapiens) (UniProt Q3SYC2). Kind of assay: Inhibition of recombinant human MGAT2 using 2-monooleoyl glycerol/[1-14C]-oleoyl CoA as substrate after 30 mins by liquid scintillation counting method.
Usually IC50 stands for the point on the concentration scale where inhibition reaches its midpoint. As to `O=C(CCNC1Cc2ccccc2C1)N1CCc2nc(SC3CCC3)n(-c3ccccc3)c(=O)c2C1`, the IC50 was 0.38 nM.

For another assay the target is unchanged. Kind of assay: Inhibition of recombinant human MGAT2.
In the case of `CCOC(=O)CCc1ccc(CN2CC(C(=O)N3CCc4nc(SC5CCCCC5)n(-c5ccccc5)c(=O)c4C3)C2)cc1`, the IC50 was 4 nM.

On to `CC(C)(C)c1cc(C(C)(C)C)nc(N2CCn3c(nnc3-c3ccc(OC(F)(F)F)cc3)C2)n1`, for which the IC50 amounted to 19 nM.

With `Cc1ccc(C2=C(C(=O)Nc3ccc(-c4nnn[nH]4)cc3)C(=O)N[C@@](c3ccc(OCCCC(F)(F)F)cc3F)(C(F)(F)F)C2)cc1`, the IC50 is 7 nM.

For `O=C1N[C@@]2(CCc3cc(OCCCC(F)(F)F)ccc32)CC(c2cnc(C3CC3)s2)=C1c1noc(=O)[nH]1`, the IC50 was less than 1 nM.

Consider `CCc1ccc(-c2cc(-c3ccc(OCCCCCC(F)(F)F)cc3C(F)(F)F)[nH]c(=O)c2-c2nn[nH]n2)s1`, for which the IC50 was determined as 0.3 nM.

As to `O=c1c2c(nc(SCc3cccnc3)n1-c1ccccc1)CCN(c1nc3cc(C(F)(F)F)ccc3[nH]1)C2`, the IC50 turned out to be 56 nM.

Regarding `O=C(CNCCCCCOc1ccc(C(F)(F)F)cc1)N1CCc2nc(SC3CCC3)n(-c3ccccc3)c(=O)c2C1`, the IC50 turned out to be 0.64 nM.

Take `O=C1N[C@@](c2ccc(OCCCC(F)(F)F)cc2F)(C(F)(F)F)CC(c2ncc(C3CC3)s2)=C1n1nn[nH]c1=O`: the IC50 was found to be 2 nM.

Turning to `O=C(CCNCC1COc2ccccc2O1)N1CCc2nc(SC3CCC3)n(-c3ccccc3)c(=O)c2C1` (configuration not stated), the IC50 is 1.1 nM.

A further assay shares this target. Kind of assay: Inhibition of recombinant human MGAT2 expressed in sf9 cells using 2-monooleoyl glycerol/[14C]-oleoyl CoA as substrate by microscintillation counting method.
In the case of `CC(C)(C)C1CCN(Cc2ccc([C@H](NS(C)(=O)=O)C(F)(F)F)cc2)CC1`, the IC50 turned out to be 58 nM.

As to `CS(=O)(=O)N[C@@H](c1ccc(CNC[C@H]2COc3cccnc3O2)cc1)C(F)(F)F`, the IC50 turned out to be 3.8 nM.
